How the values were obtained:
Conditions in all cases: in vivo
[1] = system: Rattus norvegicus; assay: Biodistribution in albino Wistar Hannover rat testis at 5 mg/kg, iv after 24 hrs by autoradiography analysis; assay type: ADME, organism-based; set-up: dose 5 mg/kg, route intravenous
[2] = Drug uptake in albino Wistar Hannover rat salivary gland at 5 mg/kg, iv by LESA-MS analysis; assay type: ADME, organism-based; set-up: dose 5 mg/kg, route intravenous
[3] = system: Harderian gland; assay: Biodistribution in albino Wistar Hannover rat harderian gland at 5 mg/kg, iv after 4 hrs by autoradiography analysis; assay type: ADME, organism-based; set-up: dose 5 mg/kg, route intravenous
[4] = system: Blood; assay: Biodistribution in albino Wistar Hannover rat whole blood at 5 mg/kg, iv after 4 hrs by liquid scintillation counting; assay type: ADME, organism-based; set-up: dose 5 mg/kg, route intravenous
[5] = Drug uptake in albino Wistar Hannover rat harder's gland at 5 mg/kg, iv by LESA-MS analysis; assay type: ADME, organism-based, Harderian gland; set-up: dose 5 mg/kg, route intravenous
[6] = system: Liver; assay: Drug uptake in albino Wistar Hannover rat liver at 5 mg/kg, iv by LESA-MS analysis; assay type: ADME, organism-based; set-up: dose 5 mg/kg, route intravenous
[7] = system: Spleen; assay: Biodistribution in albino Wistar Hannover rat spleen at 5 mg/kg, iv after 5 mins by autoradiography analysis; assay type: ADME, organism-based; set-up: dose 5 mg/kg, route intravenous
[8] = system: Brain; assay: Biodistribution in albino Wistar Hannover rat brain at 5 mg/kg, iv after 5 mins by autoradiography analysis; assay type: ADME, organism-based; set-up: dose 5 mg/kg, route intravenous
[9] = system: Stomach; assay: Drug uptake in albino Wistar Hannover rat stomach at 5 mg/kg, iv by LESA-MS analysis; assay type: ADME, organism-based; set-up: dose 5 mg/kg, route intravenous
[10] = system: Thymus; assay: Half life in albino Wistar Hannover rat thymus at 5 mg/kg, iv by autoradiography analysis; assay type: ADME, organism-based; set-up: dose 5 mg/kg, route intravenous
[11] = system: Spleen; assay: Biodistribution in albino Wistar Hannover rat spleen at 5 mg/kg, iv after 24 hrs by autoradiography analysis; assay type: ADME, organism-based; set-up: dose 5 mg/kg, route intravenous
[12] = system: Rattus norvegicus; assay: Biodistribution in albino Wistar Hannover rat renal cortex at 5 mg/kg, iv after 5 mins by autoradiography analysis; assay type: ADME, organism-based; set-up: dose 5 mg/kg, route intravenous
[13] = system: Brain; assay: Biodistribution in albino Wistar Hannover rat brain at 5 mg/kg, iv after 4 hrs by autoradiography analysis; assay type: ADME, organism-based; set-up: dose 5 mg/kg, route intravenous
[14] = system: Rattus norvegicus; assay: Biodistribution in albino Wistar Hannover rat tongue at 5 mg/kg, iv after 4 hrs by autoradiography analysis; assay type: ADME, organism-based; set-up: dose 5 mg/kg, route intravenous
[15] = system: Pancreas; assay: Biodistribution in albino Wistar Hannover rat pancreas at 5 mg/kg, iv after 5 mins by autoradiography analysis; assay type: ADME, organism-based; set-up: dose 5 mg/kg, route intravenous
[16] = system: Liver; assay: Drug uptake in albino Wistar Hannover rat liver at 5 mg/kg, iv
[17] = system: Rattus norvegicus; assay: Biodistribution in albino Wistar Hannover rat myocardium at 5 mg/kg, iv after 4 hrs by autoradiography analysis; assay type: ADME, organism-based; set-up: dose 5 mg/kg, route intravenous
[18] = system: Rattus norvegicus; assay: Biodistribution in albino Wistar Hannover rat myocardium at 5 mg/kg, iv after 5 mins by autoradiography analysis; assay type: ADME, organism-based; set-up: dose 5 mg/kg, route intravenous
[19] = system: Rattus norvegicus; assay: Biodistribution in albino Wistar Hannover rat myocardium at 5 mg/kg, iv after 24 hrs by autoradiography analysis; assay type: ADME, organism-based; set-up: dose 5 mg/kg, route intravenous
[20] = system: Harderian gland; assay: Biodistribution in albino Wistar Hannover rat harderian gland at 5 mg/kg, iv after 24 hrs by autoradiography analysis; assay type: ADME, organism-based; set-up: dose 5 mg/kg, route intravenous
[21] = system: Rattus norvegicus; assay: Biodistribution in albino Wistar Hannover rat tongue at 5 mg/kg, iv after 5 mins by autoradiography analysis; assay type: ADME, organism-based; set-up: dose 5 mg/kg, route intravenous
[22] = system: Rattus norvegicus; assay: Biodistribution in albino Wistar Hannover rat testis at 5 mg/kg, iv after 4 hrs by autoradiography analysis; assay type: ADME, organism-based; set-up: dose 5 mg/kg, route intravenous
[23] = system: Lung; assay: Biodistribution in albino Wistar Hannover rat lung at 5 mg/kg, iv after 5 mins by autoradiography analysis; assay type: ADME, organism-based; set-up: dose 5 mg/kg, route intravenous
[24] = system: Rattus norvegicus; assay: Biodistribution in albino Wistar Hannover rat bone marrow at 5 mg/kg, iv after 4 hrs by autoradiography analysis; assay type: ADME, organism-based; set-up: dose 5 mg/kg, route intravenous
[25] = system: Rattus norvegicus; assay: Biodistribution in albino Wistar Hannover rat adrenal cortex at 5 mg/kg, iv after 4 hrs by autoradiography analysis; assay type: ADME, organism-based; set-up: dose 5 mg/kg, route intravenous
[26] = system: Lung; assay: Biodistribution in albino Wistar Hannover rat lung at 5 mg/kg, iv after 24 hrs by autoradiography analysis; assay type: ADME, organism-based; set-up: dose 5 mg/kg, route intravenous
[27] = system: Thymus; assay: Drug uptake in albino Wistar Hannover rat thymus at 5 mg/kg, iv by LESA-MS analysis; assay type: ADME, organism-based; set-up: dose 5 mg/kg, route intravenous
[28] = Drug uptake in albino Wistar Hannover rat epididymis at 5 mg/kg, iv by LESA-MS analysis; assay type: ADME, organism-based; set-up: dose 5 mg/kg, route intravenous
[29] = system: Liver; assay: Biodistribution in albino Wistar Hannover rat liver at 5 mg/kg, iv after 5 mins by autoradiography analysis; assay type: ADME, organism-based; set-up: dose 5 mg/kg, route intravenous
[30] = system: Blood; assay: Biodistribution in albino Wistar Hannover rat whole blood at 5 mg/kg, iv after 24 hrs by liquid scintillation counting; assay type: ADME, organism-based; set-up: dose 5 mg/kg, route intravenous
[31] = system: Rattus norvegicus; assay: Biodistribution in albino Wistar Hannover rat epididymis at 5 mg/kg, iv after 5 mins by autoradiography analysis; assay type: ADME, organism-based; set-up: dose 5 mg/kg, route intravenous
[32] = system: Kidney; assay: Drug uptake in albino Wistar Hannover rat outer medulla of kidney at 5 mg/kg, iv by LESA-MS analysis; assay type: ADME, organism-based; set-up: dose 5 mg/kg, route intravenous
[33] = system: Brain; assay: Biodistribution in albino Wistar Hannover rat brain at 5 mg/kg, iv after 24 hrs by autoradiography analysis; assay type: ADME, organism-based; set-up: dose 5 mg/kg, route intravenous
[34] = Half life in albino Wistar Hannover rat salivary gland at 5 mg/kg, iv by autoradiography analysis; assay type: ADME, organism-based; set-up: dose 5 mg/kg, route intravenous
[35] = system: Lung; assay: Biodistribution in albino Wistar Hannover rat lung at 5 mg/kg, iv after 4 hrs by autoradiography analysis; assay type: ADME, organism-based; set-up: dose 5 mg/kg, route intravenous
[36] = system: Rattus norvegicus; assay: Biodistribution in albino Wistar Hannover rat muscle cranial at 5 mg/kg, iv after 4 hrs by autoradiography analysis; assay type: ADME, organism-based, Muscle tissue; set-up: dose 5 mg/kg, route intravenous
[37] = system: Plasma; assay: Biodistribution in albino Wistar Hannover rat plasma at 5 mg/kg, iv after 24 hrs by liquid scintillation counting; assay type: ADME, organism-based; set-up: dose 5 mg/kg, route intravenous
[38] = system: Rattus norvegicus; assay: Biodistribution in albino Wistar Hannover rat adrenal cortex at 5 mg/kg, iv after 5 mins by autoradiography analysis; assay type: ADME, organism-based; set-up: dose 5 mg/kg, route intravenous
[39] = system: Brain; assay: Half life in albino Wistar Hannover rat brain at 5 mg/kg, iv by autoradiography analysis; assay type: ADME, organism-based; set-up: dose 5 mg/kg, route intravenous
[40] = system: Blood; assay: Biodistribution in albino Wistar Hannover rat whole blood at 5 mg/kg, iv after 5 mins by liquid scintillation counting; assay type: ADME, organism-based; set-up: dose 5 mg/kg, route intravenous
[41] = system: Pituitary gland; assay: Biodistribution in albino Wistar Hannover rat pituitary at 5 mg/kg, iv after 4 hrs by autoradiography analysis; assay type: ADME, organism-based; set-up: dose 5 mg/kg, route intravenous
[42] = system: Zone of skin; assay: Biodistribution in albino Wistar Hannover rat skin at 5 mg/kg, iv after 4 hrs by autoradiography analysis; assay type: ADME, organism-based; set-up: dose 5 mg/kg, route intravenous

Compound `CN(CCc1cc(C(F)(F)F)cc(C(F)(F)F)c1)C(=O)[C@H](c1ccccc1)N1CCN(CC2CC2)CC1.Cl.O` has a Drug uptake [1] of 633 ngequiv/g, a Drug uptake [2] of 42.5% and a Drug uptake [3] of 13941 ngequiv/g. It also gave a Drug uptake [4] of 361 ngequiv/g, a Drug uptake [5] of 79.9% and a Drug uptake [6] of 12.9%. For the same compound, the Drug uptake [7] was 7308 ngequiv/g, the Drug uptake [8] was 1912 ngequiv/g and the Drug uptake [9] was 34.6%. It also gave a t1/2 [10] of 22.7 h, a Drug uptake [11] of 3306 ngequiv/g and a Drug uptake [12] of 19088 ngequiv/g. For the same compound, the Drug uptake [13] was 122 ngequiv/g, the Drug uptake [14] was 3786 ngequiv/g and the Drug uptake [15] was 17869 ngequiv/g. The Drug uptake [16] was 12.9%, the Drug uptake [17] was 4240 ngequiv/g and the Drug uptake [18] was 13504 ngequiv/g. For the same compound, the Drug uptake [19] was 1207 ngequiv/g, the Drug uptake [20] was 6246 ngequiv/g and the Drug uptake [21] was 12885 ngequiv/g. The Drug uptake [22] was 1510 ngequiv/g, the Drug uptake [23] was 24769 ngequiv/g and the Drug uptake [24] was 3910 ngequiv/g. It also gave a Drug uptake [25] of 11078 ngequiv/g, a Drug uptake [26] of 1708 ngequiv/g and a Drug uptake [27] of 67.2%. The Drug uptake [28] was 62.1%, the Drug uptake [29] was 5984 ngequiv/g and the Drug uptake [30] was 122 ngequiv/g. For the same compound, the Drug uptake [31] was 1728 ngequiv/g, the Drug uptake [32] was 20.8% and the Drug uptake [33] was 50 ngequiv/g. The t1/2 [34] was 20.3 h, the Drug uptake [35] was 10036 ngequiv/g and the Drug uptake [36] was 2972 ngequiv/g. For the same compound, the Drug uptake [37] was 80 ngequiv/g, the Drug uptake [38] was 21006 ngequiv/g and the t1/2 [39] was 32.7 h. It also gave a Drug uptake [40] of 830 ngequiv/g, a Drug uptake [41] of 7747 ngequiv/g and a Drug uptake [42] of 1997 ngequiv/g.
